Source: patent US20240140986A1, “SYNTHETIC URSOLIC ACID DERIVATIVES AND METHODS OF USE THEREOF” (REATA PHARMACEUTICALS, INC., priority 2021, published 2024)
Read-outs that look alike come from different tables or passages of the source.

What was measured:
[1] = system: IFNγ-induced NO production in RAW 264.7 cells; assay: Nitric Oxide Suppression Assay (IFNγ-induced NO, Griess nitrite readout); format: cell-based, mouse; conditions: for IC50: Mus musculus; for Avg NO IC50 Relative to RTA402 (fold): Table 2, ratio to RTA402
Description: Tissue Culture: RAW 264.7, a mouse macrophage cell line, was obtained from American Type Culture Collection (Manassas VA) and maintained in the log phase of growth in Roswell Park Memorial Institute Medium 1640 (RPMI 1640) supplemented with 10% heat inactivated fetal bovine serum and 1% penicillin-streptomycin. Cells were cultured and maintained in a humidified incubator at 37° C. under 5% C02. Cells were sub-cultured every 2-4 days. All cell culture supplies were obtained from Life Technologies (Grand Island, NY) and VWR (Radnor, PA).
Nitric Oxide Suppression Assay. RAW 264.7 cells were plated 1 day in advance of experimental treatments at a concentration of 30,000 cells per well onto Falcon-96 well clear bottom plates (Corning, NY) in a total volume of 200 μL per well using RPMI 1640 supplemented with 0.5% fetal bovine serum and 1% penicillin-streptomycin. The next day, cells were pretreated with compounds serially diluted from 1000×stocks. All compounds were dissolved in dimethyl sulfoxide (DMSO) usually at 10 mM stock solutions. Compounds were subsequently diluted in DMSO and RPMI 1640. Each well received a final concentration of 0.1% DMSO. Cells were pretreated for 2 hours and incubation at 37° C., followed by treatment with 20 ng/mL of interferon gamma (R&D Systems, Minneapolis, MN) per well for 24 hours. The next day, a nitrite standard was serially diluted from 100 μM to 1.6 μM in RPMI 1640. Afterwards, 50 μL of cell culture supernatant was transferred from each well into a new Falcon-96 well clear bottom plate. Nitrite was measured as surrogate for nitric oxide using Promega's Griess Detection Kit #G2930 (Madison, WI) which involves the addition of 50 μL of the provided sulfanilamide solution to each well of the transferred cell culture supernatant and standards, followed by a 10-minute incubation at room temperature. Next, 50 μL of the provided N-1-napthylethylenediamine dihydrochloride (NED) solution was added to the sulfanilamide reaction and incubated for 10 minutes at room temperature in the dark. Afterwards, air bubbles were removed using ethanol vapor and absorbance was measured using a Spectramax M2e plate reader with a wavelength set to 525 nm. Viability was assessed using WST-1 cell proliferation reagent from Roche (Basel, Switzerland). After media was removed for the Nitric Oxide suppression assay, 15 μL of WST-1 reagent was added to each well of cells. Plates were briefly mixed on an orbital shaker and the cells were incubated at 37° C. for 30-90 minutes. Absorbance was measured using a Spectramax M2e plate reader with wavelengths set to 440 nm and 700 nm.
For the ability of compounds to suppress the increase in nitric oxide release caused by interferon gamma, the absolute amount of nitrite that was produced in each well was extrapolated from the nitrite standards using a linear regression fit. All values were then normalized to the DMSO-interferon gamma treated wells and plotted as percent nitric oxide. IC50 values were calculated using Excel and/or GraphPad Prism (San Diego, CA).

[2] = system: Nrf2 / ARE-dependent luciferase in AREc32 reporter cell line; assay: AREc32 luciferase reporter activation (Nrf2 induction); format: cell-based, human; conditions: for EC (2-fold): Homo sapiens, Arec32; for Relative Avg AREc32 EC2X Relative to RTA402 (fold): ratio to RTA402
Description: Effect on Ludferase Reporter Activation. Nrf2 is a transcription factor that binds to the antioxidant response element (ARE) sequence in the promoter regions of its target genes. AREc32 reporter cell line (derived from human breast carcinoma MCF7 cells) was obtained was from CXR Bioscience Limited (Dundee, UK) and cultured in DMEM (low glucose) supplemented with 10% FBS, 1% penicillin/streptomycin, and 0.8 mg/ml Geneticin (G418). This cell line is stably transfected with a luciferase reporter gene under the transcriptional control of eight copies of the rat GSTA2 ARE sequence (5′-GTGACAAAGCA-3′) (Wang et al., 2006). Expression of Firefly luciferase from this reporter plasmid is controlled by binding of Nrf2 to these ARE sequences. Measurement of ARE-dependent luciferase activity allows quantitative assessment of Nrf2 induction. AREc32 cell line has previously been used in studies characterizing different Nrf2 activators (Dinkova-Kostova & Wang, 2011; Roubalová et al., 2016; Roubalová et al, 2017; Wu et al, 2012).
The effect of several compounds disclosed herein on luciferase reporter activation was assessed in the AREc32 reporter cell line (see Table 10 and Table 11). This cell line is derived from human breast carcinoma MCF-7 cells and is stably transfected with a luciferase reporter gene under the transcriptional control of eight copies of the antioxidant response element from the rat Gsta2 gene, an Nrf2 target gene (Frilling et al., 1990). AREc32 cells were plated in black 96-well plates in 200 μL media at 20,000 cells per well. Twenty-four hours after plating, cells were treated with vehicle (DMSO) or test compounds at concentrations ranging from 0.03 to 1000 nM for nineteen hours. Media was removed and 100 μL of 1:1 mixture of the One-Glo Luciferase assay reagent and culture medium was added to each well. After incubation for 5 min at room temperature, the luminescence signal was measured on a PHERAstar plate reader. The EC2X value was determined using Excel and GraphPad Prism software. The fold increase in luminescence signal for cells treated with each concentration of compound relative to cells treated with vehicle was determined and a dose-response curve was generated. The dose-response curve was fit using nonlinear regression analysis and used to extrapolate the EC2X value. The EC2X value is defined as the concentration of test compound required to increase the luminescence signal 2-fold above levels in vehicle-treated samples.

[3] = RAW264.7, Table 2, RAW 264.7 cells, 2 h pretreatment, 20 ng/mL interferon gamma 24 h, read-out: Avg NO IC50 (nM) (Mean ± SD)
[4] = Table 2, concentration increasing luminescence 2-fold above vehicle, 19 h treatment, read-out: Avg AREc32 EC2X (nM) (Mean ± SD)
[5] = RAW264.7, Table 3, ursolic acid derivatives, read-out: Avg NO IC50 (nM) (Mean ± SD)
[6] = Table 3, ursolic acid derivatives, read-out: Avg ARE EC-2X (nM) (Mean ± SD)

Compound	IC50 [1, 3] [nM]	Avg NO IC50 Relative to RTA402 (fold) [1] [fold]	EC (2-fold) [2, 4] [nM]	Relative Avg AREc32 EC2X Relative to RTA402 (fold) ([2]; Table 2)	IC50 ([1]; RAW264.7, Table 3, oleanolic acid derivative analogs, read-out: Avg NO IC50) [nM]	EC (2-fold) ([2]; Table 3, oleanolic acid derivative analogs, read-out: Avg ARE EC-2X) [nM]	IC50 [1, 5] [nM]	EC (2-fold) [2, 6] [nM]
C[C@@H]1[C@H]2[C@H]3C(=O)C=C4[C@@]5(C)C=C(C#N)C(=O)C(C)(C)[C@@H]5CC[C@@]4(C)[C@]3(C)CC[C@@]2(n2cccn2)CC[C@H]1C [Compound T64]	35.8 ± 6.1	14.80 ± 8.92	64 ± 7.6	6.07 ± 0.87	–	–	–	–
CC1(C)CC[C@]2(Cn3ccnc3)CC[C@]3(C)[C@H](C(=O)C=C4[C@@]5(C)C=C(C#N)C(=O)C(C)(C)[C@@H]5CC[C@]43C)[C@@H]2C1 [CC51, reference compound]	–	–	–	–	3.9	18	–	–
CNC(=O)CC[C@]12CC[C@@H](C)[C@H](C)[C@H]1[C@H]1C(=O)C=C3[C@@]4(C)C=C(C#N)C(=O)C(C)(C)[C@@H]4CC[C@@]3(C)[C@]1(C)CC2 [Compound T78]	2.43 ± 0.95	0.683 ± 0.093	2.33 ± 0.78	0.194 ± 0.058	–	–	–	–
Cc1nc([C@]23CC[C@@H](C)[C@H](C)[C@H]2[C@H]2C(=O)C=C4[C@@]5(C)C=C(C#N)C(=O)C(C)(C)[C@@H]5CC[C@@]4(C)[C@]2(C)CC3)no1 [Compound T82]	5.58 ± 0.32	3.69 ± 0.82	10 ± 3	1.01 ± 0.11	–	–	5.58 ± 0.32	10 ± 3
C[C@@H]1[C@H]2[C@H]3C(=O)C=C4[C@@]5(C)C=C(C#N)C(=O)C(C)(C)[C@@H]5CC[C@@]4(C)[C@]3(C)CC[C@@]2(Cn2cccn2)CC[C@H]1C [Compound T46]	32.6 ± 2.2	8.4 ± 2.7	24.1 ± 6.7	2.06 ± 0.26	–	–	–	–
CNC(=O)[C@]12CC[C@@H](C)[C@H](C)[C@H]1[C@H]1C(=O)C=C3[C@@]4(C)C=C(C#N)C(=O)C(C)(C)[C@@H]4CC[C@@]3(C)[C@]1(C)CC2 [Compound T85]	26.8 ± 4.7	9.84 ± 1.92	19 ± 3.5	1.63 ± 0.17	–	–	–	–
C[C@@H]1[C@H]2[C@H]3C(=O)C=C4[C@@]5(C)C=C(C#N)C(=O)C(C)(C)[C@@H]5CC[C@@]4(C)[C@]3(C)CC[C@@]2(CCC(=O)N2CCC2)CC[C@H]1C [Compound T80]	2.76 ± 1.02	1.09 ± 0.03	3.72 ± 0.14	0.311 ± 0.023	–	–	–	–
CCC(=O)NC[C@]12CC[C@@H](C)[C@H](C)[C@H]1[C@H]1C(=O)C=C3[C@@]4(C)C=C(C#N)C(=O)C(C)(C)[C@@H]4CC[C@@]3(C)[C@]1(C)CC2 [Compound T23]	3.07 ± 1.43	0.80 ± 0.13	1.89 ± 0.91	0.166 ± 0.071	–	–	3.07 ± 1.43	1.89 ± 0.91
C[C@@H]1[C@H]2[C@H]3C(=O)C=C4[C@@]5(C)C=C(C#N)C(=O)C(C)(C)[C@@H]5CC[C@@]4(C)[C@]3(C)CC[C@@]2(CNC(=O)C2CC2)CC[C@H]1C [Compound T19]	2.33 ± 1.47	0.74 ± 0.14	2.27 ± 0.52	0.224 ± 0.072	–	–	2.33 ± 1.47	2.27 ± 0.52
C[C@H]1[C@H](C)CC[C@]2(Cn3cncn3)CC[C@]3(C)C(O)(C(=O)C=C4[C@@]5(C)C=C(C#N)C(=O)C(C)(C)[C@@H]5CC[C@]43C)[C@H]12 (some centres unmarked) [Compound T48]	13.8 ± 1.5	3.66 ± 1.49	7.18 ± 1.2	0.602 ± 0.010	–	–	–	–
C[C@@H]1[C@H]2[C@H]3C(=O)C=C4[C@@]5(C)C=C(C#N)C(=O)C(C)(C)[C@@H]5CC[C@@]4(C)[C@]3(C)CC[C@@]2(CO)CC[C@H]1C [Compound T13]	1.86 ± 0.32	1.25 ± 0.21	4.95 ± 0.63	0.358 ± 0.016	–	–	1.86 ± 0.32	4.95 ± 0.63
CCNC(=O)CC[C@]12CC[C@@H](C)[C@H](C)[C@H]1[C@H]1C(=O)C[C@@H]3[C@@]4(C)C=C(C#N)C(=O)C(C)(C)[C@@H]4CC[C@@]3(C)[C@]1(C)CC2 [Compound T103]	22.1 ± 4.2	14.60 ± 0.59	43.1 ± 10.4	4.52 ± 0.90	–	–	–	–
C[C@@H]1[C@H]2[C@H]3C(=O)C=C4[C@@]5(C)C=C(C#N)C(=O)C(C)(C)[C@@H]5CC[C@@]4(C)[C@]3(C)CC[C@@]2(C(=O)N2CCC2)CC[C@H]1C [Compound T70]	19.6 ± 6.1	8.82 ± 3.07	21.6 ± 1.3	1.78 ± 0.34	–	–	–	–
COC(C)c1noc([C@]23CC[C@@H](C)[C@H](C)[C@H]2[C@H]2C(=O)C=C4[C@@]5(C)C=C(C#N)C(=O)C(C)(C)[C@@H]5CC[C@@]4(C)[C@]2(C)CC3)n1 (some centres unmarked) [Compound T6]	7.66 ± 1.52	3.67 ± 1.40	11.8 ± 1.9	1.03 ± 0.01	–	–	–	–
